Experimental findings from PubChem BioAssay (NCI) are described below.

What all share (test): inhibition of tumour cell growth, NCI panel, 48 h
For test [1], the system named is A549 NSCLC.
The subject of test [2] is DU-145 prostate.
The subject of test [3] is EKVX NSCLC.
For test [4], the system named is HT29 colon.
Test [5] has as its system LOX IMVI melanoma.
The test system of test [6] is MCF7 breast.
Test [7] relates to NCI-H460 lung.
Test [8] relates to NCI-H522 lung.
Test [9] concerns NCI/ADR-RES ovarian.
Test [10] deals with OVCAR-5 ovarian.

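1) Cells in 96-well plates. 2) Compound, 48 h, 5 concentrations. 3) Linear interpolation between surrounding doses. 4) Unreached endpoint = highest concentration. GI50: concentration for 50% inhibition of growth. TGI marks complete inhibition of growth.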 Bounds are passed on as bounds.

For `COc1ccc2c(c1)CC[C@@H]1[C@@H]2CC[C@]2(C)C=C(/C=C/C(=O)c3ccccc3)C[C@@H]12`, the GI50 in test [1] is 18.5 µM; in [2], 14.6 µM; in test [3], 17.7 µM; in [4] it was 17 µM; in [5], 14.9 µM; in [6], 18.6 µM. Besides, the GI50 in test [7] was 17.2 µM; in test [8], 16 µM; in [9], 17.6 µM; in test [10] it was 16.5 µM. Moreover, the TGI in [1] was 40.2 µM; in test [2] it was 28.4 µM; in [3] it was 32.3 µM; in [4], 35.7 µM; in test [5] it was 29.9 µM; in test [6], 36.3 µM. In addition, the TGI in test [7] is 35.4 µM; in test [8], 32.7 µM; in test [9], 35.1 µM; in [10], 30.7 µM.
Regarding `CCCn1c(N)c(C(=O)CNc2ccc(I)cc2)c(=O)[nH]c1=O`, the GI50 is 2.1 µM in test [1]; 7.12 µM in [2]; more than 64.3 µM in [3]; 1.23 µM in test [4]; 0.653 µM in test [5]; 0.806 µM in test [6]. In addition, the GI50 in [7] was 0.393 µM; in test [8], 16 µM; in test [9], more than 25.3 µM; in test [10] it was more than 100 µM. The TGI in [1], in test [2], in test [3], in test [4], in test [5] and in test [6] was more than 100 µM each time. The TGI in test [7], in test [8], in [9] and in test [10] was more than 100 µM throughout.
`CC[C@H](NC(=O)[C@H](CS(=O)(=O)CC1CC1)N[C@@H](c1ccc(F)cc1)C(F)(F)F)C(=O)C(=O)NC1CC1`: the GI50 in test [1] is more than 100 µM; in [2], more than 100 µM; in test [3], 90.3 µM; in [4], more than 100 µM; in test [5] it was more than 100 µM; in test [6], 86.8 µM. The GI50 in test [7], in test [8], in test [9] and in test [10] was more than 100 µM each time. Besides, the TGI in [1], in test [2], in test [3], in test [4], in test [5] and in test [6] was more than 100 µM each time. The TGI in [7], in [8], in [9] and in test [10] was more than 100 µM throughout.
Regarding `C=CCCC(=O)N1C=CC(=O)[C@H](O)[C@@H]1/C=C/c1ccccc1`, the GI50 was 18.2 µM in test [1]; 10.4 µM in test [2]; 7.63 µM in [3]; 14.4 µM in test [4]; 6.28 µM in test [5]; 6.55 µM in test [6]. The GI50 in [7] was 6.65 µM; in test [8] it was more than 32.5 µM; in test [9], 6.38 µM; in test [10], more than 32.5 µM. In addition, the TGI in test [1], in test [2], in test [3], in [4], in test [5] and in test [6] was more than 32.5 µM each time. In addition, the TGI in [7], in [8], in [9] and in test [10] was more than 32.5 µM each time.
Turning to `Cc1sc2ncn(Cc3ccc(Cl)c(Cl)c3)c(=O)c2c1C`, the GI50 in test [1] is 31.3 µM; in test [2] it was 44.3 µM; in test [3], 22.2 µM; in test [4], 77.7 µM; in [5], 25.8 µM; in [6], 25.6 µM. In addition, the GI50 was 51.5 µM in test [7], 13.1 µM in [8], 27.5 µM in test [9] and 21.6 µM in test [10]. Moreover, the TGI in [1], in test [2], in test [3], in test [4], in test [5] and in test [6] was more than 100 µM each time. Further, the TGI in test [7] was more than 100 µM; in [8], 73.9 µM; in test [9] it was more than 100 µM; in [10], 79.7 µM.
Take `N=C(N)SCCc1ccccn1`: the TGI in test [1], in test [2], in test [3], in [4], in test [5] and in test [6] was more than 100 µM throughout. For the same molecule, the TGI in [7], in [8], in test [9] and in [10] was more than 100 µM throughout.
Turning to `CCCCCCNC(=O)Oc1ccc(/C(=C(\C)c2ccccc2)c2ccc(OCCN(CC)CC)cc2)cc1`, the GI50 is 5.11 µM in [1]; 7.45 µM in test [2]; 6.02 µM in [3]; 1.17 µM in [4]; 1.1 µM in [5]; 0.602 µM in test [6]. Besides, the GI50 is 1.4 µM in [7], 3.48 µM in [8], 5.47 µM in [9] and 6.71 µM in test [10]. Also, the TGI in [1] worked out at 11.4 µM; in test [2] it was 14.6 µM; in [3] it was 12.5 µM; in test [4], 2.9 µM; in [5] it was 2.96 µM; in test [6] it was 5.47 µM. For the same molecule, the TGI is 3.62 µM in test [7], 10.6 µM in test [8], 11.9 µM in test [9] and 13.2 µM in test [10].
For `O=C(Nc1ccc(I)cc1F)c1cc(I)ccc1O`, the GI50 in test [1] is 1.15 µM; in [2], 0.873 µM; in test [3], 0.737 µM; in test [4], 3.71 µM; in [5], 0.38 µM; in test [6] it was 1.55 µM. Moreover, the GI50 in test [7] is 0.506 µM; in test [8], 0.327 µM; in [9], 0.791 µM; in test [10], 3.05 µM. Further, the TGI in [1] was more than 100 µM; in [2], more than 100 µM; in [3], 7.17 µM; in [4], more than 100 µM; in test [5], 1.67 µM; in test [6], 9.28 µM. Besides, the TGI in [7] is 22.4 µM; in test [8], 21.8 µM; in test [9] it was 3.85 µM; in test [10], more than 100 µM.
Turning to `CN(C)CCNc1nc2ccccc2c2c(=O)c3ccccc3sc12`, the GI50 in [1] is 1.81 µM; in test [2], 2.31 µM; in [3], 1.66 µM; in test [4], 1.8 µM; in [5] it was 1.37 µM; in [6], 1.37 µM. Besides, the GI50 was 1.62 µM in test [7], 1.7 µM in [8], 1.96 µM in test [9] and 2.25 µM in test [10]. Moreover, the TGI in [1] was determined as 3.96 µM; in [2], 6.83 µM; in test [3], 4.98 µM; in test [4] it was 4.81 µM; in [5] it was 2.8 µM; in test [6] it was 3.05 µM. Moreover, the TGI in [7] worked out at 3.7 µM; in test [8], 3.41 µM; in test [9] it was 6.43 µM; in test [10], 5.14 µM.
Turning to `COc1ccc(/C=N/N=C(\[O-])c2ccncc2)cc1F.COc1ccc(/C=N\N=C(/[O-])c2ccncc2)cc1F.[Cu+2]`, the GI50 was 27.3 µM in test [1]; 32 µM in test [2]; 24.3 µM in [3]; 24.1 µM in test [4]; 68.8 µM in test [5]; 17.9 µM in [6]. Further, the GI50 in [7] is 13.6 µM; in test [8] it was 12.7 µM; in [9] it was 13.4 µM; in [10] it was 18.6 µM. The TGI in test [1] is more than 100 µM; in [2], more than 100 µM; in [3] it was 76.3 µM; in test [4] it was 69 µM; in test [5], more than 100 µM; in test [6], 35 µM. Moreover, the TGI was 26.5 µM in [7], 26.1 µM in test [8], 28.8 µM in [9] and 32.7 µM in test [10].
Regarding `O=C(Nc1cccc(C(F)(F)F)c1)c1cc(Br)cc(Br)c1O`, the TGI in test [1] is 9.56 µM; in test [2] it was more than 10 µM; in test [3], 8.06 µM; in [4], more than 10 µM; in test [5], 4.95 µM; in test [6], more than 10 µM. Moreover, the TGI was more than 10 µM in test [7], 9.82 µM in [8], 6.78 µM in test [9] and more than 10 µM in test [10].
For `CN1CCN(CCOc2ccc(-c3cnc4c(-c5ccc(F)cc5)cnn4c3)cc2)CC1`, the GI50 in test [1] is 1.71 µM; in test [2], 1.64 µM; in test [3], 1.79 µM; in [4] it was 1.65 µM; in [5], 1.76 µM; in test [6], 1.48 µM. The GI50 in test [7] was 1.54 µM; in test [8] it was 1.87 µM; in [9], 2.2 µM; in [10], 1.6 µM. Besides, the TGI in [1] was 3.45 µM; in [2] it was 3.16 µM; in test [3], 3.55 µM; in test [4] it was 4.28 µM; in test [5] it was 3.25 µM; in test [6], 3.05 µM. Further, the TGI in test [7] worked out at 3.06 µM; in [8], 3.94 µM; in test [9], 4.88 µM; in test [10], 3.03 µM.
Turning to `Cc1cc(S(=O)(=O)Nc2nc3cc(Cl)ccc3o2)c(SCc2ccccc2)cc1Cl`, the GI50 is 23.8 µM in test [1]; 22.4 µM in test [2]; 17.8 µM in [3]; 39.9 µM in test [4]; 21.4 µM in test [5]; 24.9 µM in test [6]. Also, the GI50 is 21.7 µM in test [7], 17.4 µM in test [8], 28.5 µM in test [9] and 22.7 µM in test [10]. Also, the TGI in [1] was 59.9 µM; in test [2], 45.9 µM; in test [3] it was 37 µM; in [4], more than 100 µM; in test [5] it was 48.9 µM; in test [6], 60.5 µM. The TGI in [7] is 58.5 µM; in [8], 40.1 µM; in test [9], 66.2 µM; in [10] it was 43 µM.
`COC(=O)[C@]12CC[C@@H](C)[C@H](C)[C@@H]1C1=CC[C@@H]3[C@@]4(C)CC(=O)[C@H](OC(=O)c5ccco5)[C@@]5(C)COC(=C45)C[C@@]3(C)[C@]1(C)CC2`: the GI50 in test [1] is 6.31 µM; in [2], 9.04 µM; in test [3] it was 2.09 µM; in test [4], 0.523 µM; in [5] it was 0.427 µM; in [6], 0.741 µM. In addition, the GI50 in [7] was 0.568 µM; in [8], 3.1 µM; in test [9], 6.37 µM; in test [10], more than 100 µM. Moreover, the TGI in test [1], in test [2], in test [3], in test [4], in test [5] and in test [6] was more than 100 µM throughout. Further, the TGI in test [7], in test [8], in [9] and in test [10] was more than 100 µM throughout.
Consider `CC1(C)[C@@H](OC(N)=O)C=C[C@]2(C=O)[C@H]3CC[C@]4(C)[C@@H](c5ccc(=O)oc5)[C@@H](Cl)C[C@]4(O)C3=CC[C@@H]12`, for which the GI50 was 0.00361 µM in test [1]; 0.0041 µM in test [2]; 0.00415 µM in [3]; 0.00521 µM in test [4]; 0.0046 µM in test [5]; 0.00688 µM in test [6]. In addition, the GI50 in test [7] was less than 0.0025 µM; in test [8], less than 0.0025 µM; in test [9], 0.00609 µM; in [10], 0.00581 µM. Further, the TGI in test [1] worked out at 0.00752 µM; in test [2] it was 0.00785 µM; in [3] it was 0.0102 µM; in [4], 0.011 µM; in test [5] it was 0.00885 µM; in test [6] it was 0.0287 µM. Further, the TGI in test [7] came out at 0.0048 µM; in test [8], 0.00573 µM; in [9] it was 0.0167 µM; in test [10], 0.0135 µM.
